Experimental data taken from PMC8283790, “Inhibitory Effect of Puroindoline Peptides on Campylobacter jejuni Growth and Biofilm Formation” (Frontiers in Microbiology, 2021).
≈ marks a conversion by molar mass, not a printed value. Where two headings read alike, the source gives them in different places. Where a SMILES comes first, the peptide text is derived from it.

Columns and labels:
C. jejuni strain F38011 = assay: microbe, parasite or virus in culture; assay type: cell-based, Campylobacter jejuni; details: for MIC: CLSI broth microdilution, MH broth, ~5 × 10^4 bacteria/well, 37°C microaerobic
C. jejuni strain 81-176 [1] = assay: microbe, parasite or virus in culture
C. jejuni 81-176 biofilm = assay: Biofilm formation, crystal violet staining; assay type: cell-based, Campylobacter jejuni; details: inoculum OD540 0.1, 72 h, 37°C microaerobic, no agitation
C. jejuni strain 81-176 [2] = details: C. jejuni 81-176, 48 h; for MIC: CLSI broth microdilution, MH broth, ~5 × 10^4 bacteria/well, 37°C microaerobic, OD595
[3] = Solubility of the synthetic peptides; assay type: physicochemical; details: DMSO and water
INT 407 cells [4] = assay: Lactate dehydrogenase (LDH) cytotoxicity assay; assay type: cell-based, human
Experimental: (§1) The toxicity of the puroindoline peptides was assessed using INT 407 epithelial cells (ATCC CCL-6) and SRBCs, as described below. The INT 407 cells (a derivative of HeLa cells) were cultured in Minimal Essential Medium (MEM) (Gibco, Grand Island, NY, United States) supplemented with 10% fetal bovine serum (FBS) and 1 mM sodium pyruvate at 37°C in humidified condition (5% CO2).
The cytotoxicity of puroindoline peptides on INT 407 cells was monitored using the lactate dehydrogenase (LDH) activity assay kit (Millipore Sigma, Danvers, MA, United States) following the manufacturer’s guidelines. LDH is released from damaged cells into the medium. Briefly, INT 407 cells were seeded into a 96 well plate at a density of 2.5 × 10^4 cells/well in 200 μL growth media (MEM supplemented by 10% FBS) and incubated for 24 h at 37°C in humidified (5% CO2) conditions. The next day, cells were rinsed twice with MEM without FBS, and different concentrations of peptides were added. Cells were incubated for 3 h, 6 h or 24 h at 37°C. As a positive control, 0.1% Triton X-100 was used. Media only was used as a negative control. In the presence of Triton X-100, cells release maximum LDH. After the appropriate incubation point, the tissue culture plate was centrifuged at 2000 rpm for 5 min. […] Absorbance was recorded at 450 nm (OD450) on a BioTek 96-well plate reader.

INT 407 cells [5] = assay: MTT cell viability assay; assay type: cell-based, human; details: for Concentration reducing cell viability (MTT, OD570): INT 407 cells, 24 h
Experimental: as §1
The viability of INT 407 cells was assessed by MTT assay according to the manufacturer’s recommendations (Roche Diagnostics, Mannheim, Germany). Briefly, INT 407 cells were seeded into a 96-well plate at a density of 2.5 × 10^4 cells/well in 200 μL of growth media (MEM supplemented by 10% FBS) and incubated for 24 h at 37°C under humidified conditions. Cells were rinsed twice with MEM without FBS, and different concentrations of peptides were added into the well. Triton X-100 was added as a positive control and growth medium only was added as a negative control. After treatment, the cells were incubated for different time points (3, 6, or 24 h) at 37°C in a humidified condition. At the end of each experiment, 100 μL of culture medium was removed into a new 96-well plate, and 25 μL of MTT stock solution was added into each well. The plates were incubated for 4 h at 37°C. Then, 100 μL of the solubilizing solution was added to each well, and the plate was incubated overnight at 37°C. After cooling, the plates were read at 570 nm (OD570) on a BioTek 96-well plate reader.

[6] = system: sheep red blood cells (SRBCs); assay: Hemolysis assay; assay type: cell-based; details: ~10^8 cells/mL, 60 min, 37°C, absorbance 540 nm; 100% = 1% Triton X-100
Experimental: The potential toxicity of the peptides was determined using a hemolysis assay. Briefly, SRBCs (Hardy Diagnostics, Santa Monica, CA, United States) were washed three times with 1× PBS. Aliquots containing approximately 10^8 cells/mL were incubated with different concentrations of the peptides for 60 min at 37°C in a 96-well tray. The plates were then centrifuged, and the absorbance of each supernatant was measured at 540 nm. Zero hemolysis (blank) and 100% hemolysis were determined in phosphate buffer and 1% Triton X-100, respectively.

blood = blood hemolysis assay; ref Jing et al. (2003); cited from earlier work
Text: (§2) The cytotoxicity and hemolytic activity of PinA has been addressed in this study using human epithelial INT 407 cells and SRBCs. INT 407 cells were chosen for this study as these cells grow rapidly and easy to maintain in culture media. INT 407 cells have been used extensively in C. jejuni research for several decades ([Negretti et al., 2019]). […] The first report on the cytotoxicity of puroindolines was from [Jing et al. (2003)], where th ...

red blood cells = details: ref Capparelli et al. (2007); cited from earlier work
Text: as §2

MRSA = assay type: cell-based, Staphylococcus aureus; details: CLSI broth microdilution, MH broth, 37°C aerobic, 24 h, OD595
Experimental: (§3) C. jejuni clinical strains 81-176 and F38011 were cultured every 24 to 48 h on Mueller-Hinton (MH) agar containing 5% citrated bovine blood (MH-blood agar) or in MH broth in a shaking orbital incubator with microaerobic conditions (5% O2, 10% CO2, 85% N2) at 37°C. The generic isolates of E. coli O157:H7, L. monocytogenes, and Salmonella enterica serovar Typhimurium (S. Typhimurium) were cultured on LB agar plates in an aerobic chamber at 37°C, and methicillin-resistant S. aureus (MRSA) were cultured on an MH-blood agar plate in an aerobic chamber at 37°C.
(§4) Two-fold serial dilutions were made. The bacterial cultures were grown overnight in MH broth under the appropriate conditions, pelleted by centrifugation, and suspended in MH broth at 5 × 10^6 CFU/mL. Ten microliters of bacterial suspension (∼5 × 10^4 bacteria) was used to inoculate every well except the media control wells in 96-well microtiter plate. The plate was incubated in an orbital shaker at 37°C in a microaerobic condition for 48 h for C. jejuni strains or in aerobic conditions for 24 h for other bacteria. After incubation, the optical density was determined using a 96-well plate reader (BioTek Instruments Inc., Winooski, VT, United States) at 595 nm (OD595). […] The dose-response curves were created by log-transforming the OD595 readings. […]

S. Typhimurium = assay type: cell-based, Salmonella enterica serovar Typhimurium; details: CLSI broth microdilution, MH broth, 37°C aerobic, 24 h, OD595
Experimental: as §3, §4

L. monocytogenes = assay type: cell-based, Listeria monocytogenes; details: CLSI broth microdilution, MH broth, 37°C aerobic, 24 h, OD595
Experimental: as §3, §4

E. coli O157:H7 = assay type: cell-based, Escherichia coli; details: CLSI broth microdilution, MH broth, 37°C aerobic, 24 h, OD595
Experimental: as §3, §4

Compound	Concentration reducing cell viability (MTT, OD570) (INT 407 cells [5]) [µg/mL]	Concentration showing hemolysis of SRBCs [6] [µg/mL]	Concentration up to which no hemolytic activity was identified (blood) [µg/mL]	Concentration up to which no hemolytic activity was displayed (red blood cells) [µg/mL]	MIC (MRSA) [µg/mL]	MIC (S. Typhimurium) [µg/mL]	MIC (L. monocytogenes) [µg/mL]	MIC (C. jejuni strain F38011; 48 h, OD595) [µg/mL]	MIC (C. jejuni strain 81-176 [2]) [µg/mL]	MIC (E. coli O157:H7) [µg/mL]	also measured
CC[C@H]1OC(=O)[C@H](C)[C@@H](O[C@H]2C[C@@](C)(OC)[C@@H](O)[C@H](C)O2)[C@H](C)[C@@H](O[C@@H]2O[C@H](C)C[C@H](N(C)C)[C@H]2O)[C@](C)(O)C[C@@H](C)C(=O)[C@H](C)[C@@H](O)[C@]1(C)O [erythromycin]	–	–	–	–	–	–	–	–	–	–	MIC (C. jejuni strain F38011; Campylobacter jejuni, 48 h, OD595, read-out: MIC): 0.188 µg/mL (≈ 0.255 µM); IC50 (C. jejuni strain F38011; Campylobacter jejuni, read-out: IC50 (concentration at which 50% of bacteria is inhibited), broth microdilution, 48 h, ten concentration points, min. three biological replicates): 0.0405 µg/mL (≈ 0.0552 µM); IC90 (C. jejuni strain F38011; Campylobacter jejuni, read-out: IC90 (90% of maximal inhibitory concentration), from slope of concentration-effect curve, 48 h): 0.0657 µg/mL (≈ 0.0895 µM); MBC (C. jejuni strain F38011; Campylobacter jejuni, wells spotted on MH agar, 24–48 h, no growth (>99.9% reduction)): 0.25 µg/mL (≈ 0.341 µM); IC10 (10% of maximal inhibitory concentration) (C. jejuni strain F38011; from slope of concentration-effect curve, 48 h): 0.0249 µg/mL; MBC (C. jejuni strain 81-176 [1]; Campylobacter jejuni, 81176): 0.125 µg/mL (≈ 0.17 µM); MIC (C. jejuni strain 81-176 [1]; Campylobacter jejuni, 81176, 48 h): 0.125 µg/mL (≈ 0.17 µM); IC50 (C. jejuni strain 81-176 [1]; Campylobacter jejuni, 81176, 48 h, read-out: IC50 (concentration at which 50% of bacteria is inhibited)): 0.0415 µg/mL (≈ 0.0565 µM); IC90 (C. jejuni strain 81-176 [1]; Campylobacter jejuni, 81176, 48 h, read-out: IC90 (90% of maximal inhibitory concentration)): 0.0677 µg/mL (≈ 0.0922 µM); Concentration inhibiting biofilm formation (C. jejuni 81-176 biofilm): ≥ 0.25 µg/mL; IC10 (10% of maximal inhibitory concentration) (C. jejuni strain 81-176 [2]; from slope of concentration-effect curve): 0.0254 µg/mL
CSCC[C@H](NC(=O)[C@@H](N)[C@@H](C)O)C(=O)N[C@@H](CCCCN)C(=O)N[C@@H](CC(=O)O)C(=O)N[C@@H](Cc1ccccc1)C(=O)N1CCC[C@H]1C(=O)N[C@H](C(=O)N[C@H](C(=O)N[C@@H](Cc1c[nH]c2ccccc12)C(=O)N1CCC[C@H]1C(=O)N[C@H](C(=O)N[C@@H](CCCCN)C(=O)N[C@@H](Cc1c[nH]c2ccccc12)C(=O)N[C@@H](Cc1c[nH]c2ccccc12)C(=O)N[C@@H](CCCCN)C(=O)NCC(=O)NCC(=O)O)[C@@H](C)O)[C@@H](C)O)C(C)C [PinB] (H-TMKDFPVTWPTKWWKGG-OH)	> 512	≥ 256	1000	50	–	–	–	–	–	–	Solubility (in words) [3]: soluble in DMSO, an organic solvent, but not in water; Concentration showing cytotoxicity (LDH release) (INT 407 cells [4]; INT 407 cells, any time point (3, 6, 24 h)): > 512 µg/mL
CSCC[C@H](NC(=O)[C@@H](N)[C@@H](C)O)C(=O)N[C@@H](CCCCN)C(=O)N[C@@H](CC(=O)O)C(=O)N[C@@H](Cc1ccccc1)C(=O)N1CCC[C@H]1C(=O)N[C@H](C(=O)N[C@H](C(=O)N[C@@H](Cc1c[nH]c2ccccc12)C(=O)N1CCC[C@H]1C(=O)N[C@H](C(=O)NCC(=O)N[C@@H](Cc1c[nH]c2ccccc12)C(=O)N[C@@H](Cc1c[nH]c2ccccc12)C(=O)NCC(=O)NCC(=O)NCC(=O)O)[C@@H](C)O)[C@@H](C)O)C(C)C [PinB mutant] (H-TMKDFPVTWPTGWWGGG-OH)	–	≥ 256	–	–	>512	>512	>512	>512	>512	>512	–
CSCC[C@H](NC(=O)[C@@H](N)[C@@H](C)O)C(=O)N[C@@H](CCCCN)C(=O)N[C@@H](CC(=O)O)C(=O)N[C@@H](Cc1ccccc1)C(=O)N1CCC[C@H]1C(=O)N[C@H](C(=O)N[C@H](C(=O)N[C@@H](Cc1c[nH]c2ccccc12)C(=O)N[C@@H](CCCNC(=N)N)C(=O)N[C@@H](Cc1c[nH]c2ccccc12)C(=O)N[C@@H](Cc1c[nH]c2ccccc12)C(=O)N[C@@H](CCCCN)C(=O)N[C@@H](Cc1c[nH]c2ccccc12)C(=O)N[C@@H](Cc1c[nH]c2ccccc12)C(=O)N[C@@H](CCCCN)C(=O)NCC(=O)NCC(=O)O)[C@@H](C)O)C(C)C [PinA] (H-TMKDFPVTWRWWKWWKGG-OH)	256	≥ 256	1000	150	–	–	–	–	–	–	Cytotoxicity (LDH release), in words (INT 407 cells [4]; INT 407 cells, 3, 6 and 24 h, MEM without FBS, Triton X-100 at 0.1%): cytotoxic to INT 407 cells at higher concentrations
CSCC[C@H](NC(=O)[C@@H](N)[C@@H](C)O)C(=O)N[C@@H](CCCCN)C(=O)N[C@@H](CC(=O)O)C(=O)N[C@@H](Cc1ccccc1)C(=O)N1CCC[C@H]1C(=O)N[C@H](C(=O)N[C@H](C(=O)N[C@@H](Cc1c[nH]c2ccccc12)C(=O)N[C@@H](CCCNC(=N)N)C(=O)N[C@@H](Cc1c[nH]c2ccccc12)C(=O)NCC(=O)N[C@@H](CCCCN)C(=O)N[C@@H](Cc1c[nH]c2ccccc12)C(=O)NCC(=O)N[C@@H](CCCCN)C(=O)NCC(=O)NCC(=O)O)[C@@H](C)O)C(C)C [PinA mutant] (H-TMKDFPVTWRWGKWGKGG-OH)	–	≥ 256	–	–	>512	>512	>512	>512	>512	>512	–
Triton X-100 [reference compound]	–	–	–	–	–	–	–	–	–	–	Cell viability (MTT, OD570), in words (INT 407 cells [5]): very low absorbance at OD570
